{
  "source": "ChEMBL document CHEMBL1201862",
  "about": "“PubChem BioAssay data set” (2004)",
  "key": {"[1]": {"test": "Luminescence-based cell-based high throughput dose response assay to identify activators of the DAF-12 from the parasite S. stercoralis (ssDAF-12).", "format": "functional"}, "[2]": {"target": "T1, Oxysterols receptor LXR-beta (Homo sapiens, UniProt P55055)", "T1 sequence (P55055 whole entry)": "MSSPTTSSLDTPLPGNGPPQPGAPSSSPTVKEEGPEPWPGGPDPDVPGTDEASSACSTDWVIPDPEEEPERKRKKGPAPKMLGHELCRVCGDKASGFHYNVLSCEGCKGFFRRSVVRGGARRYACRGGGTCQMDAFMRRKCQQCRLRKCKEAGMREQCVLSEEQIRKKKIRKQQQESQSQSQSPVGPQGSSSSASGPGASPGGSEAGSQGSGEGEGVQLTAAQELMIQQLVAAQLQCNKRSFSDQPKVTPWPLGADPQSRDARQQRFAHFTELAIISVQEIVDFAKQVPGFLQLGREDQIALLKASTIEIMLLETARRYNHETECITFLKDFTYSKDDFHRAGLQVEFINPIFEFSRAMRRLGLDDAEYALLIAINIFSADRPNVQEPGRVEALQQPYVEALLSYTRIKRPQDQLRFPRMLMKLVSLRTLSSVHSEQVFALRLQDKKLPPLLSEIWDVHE", "test": "LXR agonists, Gal4 luciferase reporter, dose response, counter-screen for ssDAF-12 agonist project, cell-based, luminescence, HEK293, S. stercoralis campaign (AID 720737)", "format": "functional", "settings": "read-out: IC50 (the source's name)"}, "[3]": {"target": "T1, Oxysterols receptor LXR-beta", "format": "functional, cell-based"}, "[4]": {"test": "Luminescence Cell-Based Dose Confirmation HTS to Identify Inhibitors of Polyadenylation.", "format": "functional"}, "Estrogen receptor beta": {"target": "Estrogen receptor beta (Homo sapiens, UniProt Q92731)", "test": "blockers of SRC-3 recruitment to ERβ – biochemical, ELISA, streptavidin-HRP readout, orthogonal assay, confirmation (AID 1060)"}, "Cytochrome P450 2C9": {"target": "Cytochrome P450 2C9 (Homo sapiens, UniProt P11712)", "sequence (P11712 whole entry)": "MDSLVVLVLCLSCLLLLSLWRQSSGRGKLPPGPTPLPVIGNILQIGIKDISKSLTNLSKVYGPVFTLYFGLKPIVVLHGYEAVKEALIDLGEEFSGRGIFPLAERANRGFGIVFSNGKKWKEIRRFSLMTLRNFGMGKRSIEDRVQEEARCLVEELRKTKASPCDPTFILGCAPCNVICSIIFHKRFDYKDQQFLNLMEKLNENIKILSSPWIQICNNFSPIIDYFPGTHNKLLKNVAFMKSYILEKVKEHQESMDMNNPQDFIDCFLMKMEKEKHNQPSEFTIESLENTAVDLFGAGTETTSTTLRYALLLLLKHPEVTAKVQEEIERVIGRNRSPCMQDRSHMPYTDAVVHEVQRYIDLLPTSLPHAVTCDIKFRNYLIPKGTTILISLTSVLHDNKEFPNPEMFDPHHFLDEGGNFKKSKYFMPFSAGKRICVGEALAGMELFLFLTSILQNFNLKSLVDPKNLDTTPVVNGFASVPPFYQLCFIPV"}, "Cytochrome P450 1A2": {"target": "T2, Cytochrome P450 1A2 (Homo sapiens, UniProt P05177)", "T2 sequence (P05177 whole entry)": "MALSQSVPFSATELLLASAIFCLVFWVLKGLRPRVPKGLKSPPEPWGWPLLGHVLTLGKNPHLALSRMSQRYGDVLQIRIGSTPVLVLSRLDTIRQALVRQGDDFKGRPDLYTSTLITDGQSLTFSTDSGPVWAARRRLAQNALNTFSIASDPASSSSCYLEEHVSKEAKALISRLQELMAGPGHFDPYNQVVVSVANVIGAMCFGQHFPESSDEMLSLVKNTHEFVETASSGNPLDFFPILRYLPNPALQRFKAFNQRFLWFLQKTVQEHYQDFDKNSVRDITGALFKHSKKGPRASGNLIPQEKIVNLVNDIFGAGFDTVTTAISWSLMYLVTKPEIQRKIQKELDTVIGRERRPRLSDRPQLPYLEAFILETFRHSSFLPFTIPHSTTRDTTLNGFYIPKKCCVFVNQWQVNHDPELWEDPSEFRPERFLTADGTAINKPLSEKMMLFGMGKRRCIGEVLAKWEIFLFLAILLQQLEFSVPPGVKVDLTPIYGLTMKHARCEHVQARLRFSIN"}, "[5]": {"target": "T3, Epstein-Barr nuclear antigen 1 (Epstein-Barr virus (strain B95-8) (HHV-4) (Human herpesvirus 4), UniProt P03211)", "T3 sequence (P03211 whole entry)": "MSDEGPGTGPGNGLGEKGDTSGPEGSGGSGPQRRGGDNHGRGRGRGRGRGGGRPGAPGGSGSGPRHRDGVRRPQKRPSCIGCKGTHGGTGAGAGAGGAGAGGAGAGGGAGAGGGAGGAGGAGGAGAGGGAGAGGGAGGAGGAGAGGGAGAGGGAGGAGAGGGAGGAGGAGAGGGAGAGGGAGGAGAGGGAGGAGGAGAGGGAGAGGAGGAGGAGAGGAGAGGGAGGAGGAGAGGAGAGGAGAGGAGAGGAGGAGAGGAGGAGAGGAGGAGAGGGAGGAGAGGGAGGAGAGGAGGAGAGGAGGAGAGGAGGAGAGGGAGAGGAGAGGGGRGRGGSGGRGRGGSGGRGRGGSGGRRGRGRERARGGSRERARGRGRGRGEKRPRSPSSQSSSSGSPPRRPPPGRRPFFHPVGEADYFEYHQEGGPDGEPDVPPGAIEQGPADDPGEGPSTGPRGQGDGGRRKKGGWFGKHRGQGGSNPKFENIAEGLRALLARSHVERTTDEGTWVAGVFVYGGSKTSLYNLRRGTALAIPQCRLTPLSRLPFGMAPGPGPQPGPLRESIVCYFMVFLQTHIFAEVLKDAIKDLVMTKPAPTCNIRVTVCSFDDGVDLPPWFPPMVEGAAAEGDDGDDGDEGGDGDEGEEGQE", "test": "inhibition of EBV nuclear antigen 1 DNA binding – biochemical, fluorescence polarization, 1536-well, dose response (AID 2381);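 note: fluorescence polarization of a Cy5 DNA probe bound by EBNA-1 protein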", "design": "species or system human gammaherpesvirus 4"}, "[6]": {"target": "T4, Lytic switch protein BZLF1 (Epstein-Barr virus (strain B95-8) (HHV-4) (Human herpesvirus 4), UniProt P03206)", "T4 sequence (P03206 whole entry)": "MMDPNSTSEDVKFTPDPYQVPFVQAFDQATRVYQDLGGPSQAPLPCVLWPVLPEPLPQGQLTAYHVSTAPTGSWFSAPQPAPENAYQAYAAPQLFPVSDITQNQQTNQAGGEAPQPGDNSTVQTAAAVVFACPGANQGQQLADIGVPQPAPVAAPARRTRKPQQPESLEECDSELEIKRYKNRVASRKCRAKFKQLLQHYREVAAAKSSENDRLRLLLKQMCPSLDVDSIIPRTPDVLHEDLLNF", "test": "inhibition of BZLF1 ZTA DNA binding – biochemical, fluorescence polarization, Epstein-Barr virus, 1536-well, counter-screen for EBNA-1 inhibitor project, dose response (AID 2377);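 note: fluorescence polarization of Cy5-labelled ZRE DNA probe bound by purified Zta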", "design": "species or system human gammaherpesvirus 4"}, "[7]": {"target": "Peroxisome proliferator-activated receptor gamma/Nuclear receptor coactivator 2 (Homo sapiens, UniProt P37231)", "format": "functional"}, "[8]": {"target": "Peroxisome proliferator-activated receptor gamma/Nuclear receptor coactivator 3 (Homo sapiens, UniProt P37231)", "sequence (P37231 whole entry)": "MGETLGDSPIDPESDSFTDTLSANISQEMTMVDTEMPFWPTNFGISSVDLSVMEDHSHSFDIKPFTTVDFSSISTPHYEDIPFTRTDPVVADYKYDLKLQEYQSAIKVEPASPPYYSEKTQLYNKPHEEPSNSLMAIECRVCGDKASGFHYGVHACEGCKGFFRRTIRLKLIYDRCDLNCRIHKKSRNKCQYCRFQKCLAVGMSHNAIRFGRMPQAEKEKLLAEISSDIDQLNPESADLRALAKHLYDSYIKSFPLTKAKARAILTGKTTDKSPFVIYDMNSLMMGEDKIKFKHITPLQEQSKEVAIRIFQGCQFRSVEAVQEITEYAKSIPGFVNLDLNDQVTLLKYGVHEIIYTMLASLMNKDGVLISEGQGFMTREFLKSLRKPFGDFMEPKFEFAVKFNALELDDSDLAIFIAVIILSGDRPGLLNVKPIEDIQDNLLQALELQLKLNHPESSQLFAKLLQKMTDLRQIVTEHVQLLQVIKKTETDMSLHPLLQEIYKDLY", "sequence (Q9Y6Q9 whole entry, further chain)": "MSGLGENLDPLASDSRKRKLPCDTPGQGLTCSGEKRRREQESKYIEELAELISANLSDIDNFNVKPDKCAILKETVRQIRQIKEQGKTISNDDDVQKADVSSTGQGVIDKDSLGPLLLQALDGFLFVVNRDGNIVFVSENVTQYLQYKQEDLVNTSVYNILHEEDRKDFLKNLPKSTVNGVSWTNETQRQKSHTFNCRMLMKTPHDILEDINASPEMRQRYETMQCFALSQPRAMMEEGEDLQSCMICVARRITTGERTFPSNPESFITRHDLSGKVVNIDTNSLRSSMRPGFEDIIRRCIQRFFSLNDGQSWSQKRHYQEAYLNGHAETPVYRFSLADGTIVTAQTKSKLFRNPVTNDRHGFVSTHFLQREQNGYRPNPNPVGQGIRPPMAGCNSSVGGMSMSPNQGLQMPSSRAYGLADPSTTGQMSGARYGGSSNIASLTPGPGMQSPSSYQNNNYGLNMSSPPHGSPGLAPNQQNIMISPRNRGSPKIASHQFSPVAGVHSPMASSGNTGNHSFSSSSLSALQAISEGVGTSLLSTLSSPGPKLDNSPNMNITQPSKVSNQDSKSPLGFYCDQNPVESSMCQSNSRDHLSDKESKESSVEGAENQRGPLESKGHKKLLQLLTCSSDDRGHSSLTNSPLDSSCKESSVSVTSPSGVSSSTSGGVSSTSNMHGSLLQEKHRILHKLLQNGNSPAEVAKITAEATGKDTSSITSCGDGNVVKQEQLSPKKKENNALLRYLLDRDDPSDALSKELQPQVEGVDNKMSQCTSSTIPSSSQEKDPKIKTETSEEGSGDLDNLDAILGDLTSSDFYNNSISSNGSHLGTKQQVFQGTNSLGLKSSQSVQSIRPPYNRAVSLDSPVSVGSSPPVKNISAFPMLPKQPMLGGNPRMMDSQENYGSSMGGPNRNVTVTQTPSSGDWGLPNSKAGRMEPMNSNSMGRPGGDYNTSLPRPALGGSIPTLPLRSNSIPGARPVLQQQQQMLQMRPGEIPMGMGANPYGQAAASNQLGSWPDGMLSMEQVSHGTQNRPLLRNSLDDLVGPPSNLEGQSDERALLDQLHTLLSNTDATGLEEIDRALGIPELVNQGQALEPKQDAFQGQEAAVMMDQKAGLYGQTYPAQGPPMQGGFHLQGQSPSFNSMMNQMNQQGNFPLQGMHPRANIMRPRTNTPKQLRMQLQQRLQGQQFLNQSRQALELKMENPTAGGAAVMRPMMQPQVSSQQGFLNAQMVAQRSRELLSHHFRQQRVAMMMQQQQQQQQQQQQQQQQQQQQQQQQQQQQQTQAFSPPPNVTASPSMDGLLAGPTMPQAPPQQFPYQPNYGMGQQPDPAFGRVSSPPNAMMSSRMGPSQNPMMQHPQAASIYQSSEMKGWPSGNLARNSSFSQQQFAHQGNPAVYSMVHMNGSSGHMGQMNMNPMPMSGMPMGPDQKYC", "format": "functional"}, "[9]": {"target": "Peroxisome proliferator-activated receptor gamma/Nuclear receptor coactivator 1 (Homo sapiens, UniProt P37231)", "sequence (P37231 whole entry)": "as the sequence (P37231 whole entry) above", "sequence (Q15788 whole entry, further chain)": "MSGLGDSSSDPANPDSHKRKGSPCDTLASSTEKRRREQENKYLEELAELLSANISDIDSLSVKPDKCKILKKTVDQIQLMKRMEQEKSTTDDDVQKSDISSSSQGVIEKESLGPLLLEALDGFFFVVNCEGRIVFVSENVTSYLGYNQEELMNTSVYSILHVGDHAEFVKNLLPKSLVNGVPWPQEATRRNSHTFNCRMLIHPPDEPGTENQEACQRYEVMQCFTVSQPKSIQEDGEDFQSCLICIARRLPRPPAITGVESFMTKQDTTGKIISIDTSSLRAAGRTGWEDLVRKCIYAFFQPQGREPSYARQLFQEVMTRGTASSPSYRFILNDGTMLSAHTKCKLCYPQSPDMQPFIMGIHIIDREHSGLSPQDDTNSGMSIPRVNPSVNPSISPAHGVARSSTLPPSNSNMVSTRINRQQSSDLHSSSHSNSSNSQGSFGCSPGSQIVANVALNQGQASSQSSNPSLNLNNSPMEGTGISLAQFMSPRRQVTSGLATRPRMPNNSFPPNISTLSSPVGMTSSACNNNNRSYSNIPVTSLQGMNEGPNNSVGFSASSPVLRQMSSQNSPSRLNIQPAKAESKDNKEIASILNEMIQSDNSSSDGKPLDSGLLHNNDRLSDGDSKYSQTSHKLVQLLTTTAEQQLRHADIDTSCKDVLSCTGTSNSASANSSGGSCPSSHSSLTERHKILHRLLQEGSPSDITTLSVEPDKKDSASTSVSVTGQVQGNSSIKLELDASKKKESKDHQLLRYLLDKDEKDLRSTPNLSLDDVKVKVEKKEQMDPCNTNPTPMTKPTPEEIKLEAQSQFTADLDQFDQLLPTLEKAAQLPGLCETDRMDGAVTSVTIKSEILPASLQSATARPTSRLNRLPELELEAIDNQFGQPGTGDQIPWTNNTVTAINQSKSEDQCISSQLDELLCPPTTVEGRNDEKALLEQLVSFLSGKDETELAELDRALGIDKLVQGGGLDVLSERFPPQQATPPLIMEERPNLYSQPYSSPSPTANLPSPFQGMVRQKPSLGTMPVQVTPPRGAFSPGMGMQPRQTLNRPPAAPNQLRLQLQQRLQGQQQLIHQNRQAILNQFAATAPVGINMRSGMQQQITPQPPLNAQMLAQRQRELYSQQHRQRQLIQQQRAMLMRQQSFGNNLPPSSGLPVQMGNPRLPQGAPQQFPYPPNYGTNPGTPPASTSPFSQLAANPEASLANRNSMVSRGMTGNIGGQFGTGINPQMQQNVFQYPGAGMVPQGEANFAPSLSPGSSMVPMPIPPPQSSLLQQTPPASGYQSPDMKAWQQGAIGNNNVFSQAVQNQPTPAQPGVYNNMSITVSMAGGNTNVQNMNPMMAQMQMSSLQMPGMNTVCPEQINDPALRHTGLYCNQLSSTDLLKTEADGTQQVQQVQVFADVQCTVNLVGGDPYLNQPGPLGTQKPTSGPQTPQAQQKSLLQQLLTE", "format": "functional"}, "BJ [10]": {"tested_on": "BJ", "test": "BJ-TERT fibroblast viability loss – cell-based, RAS-independent, luminescence, dose response (AID 1933)", "format": "functional", "settings": "Homo sapiens"}, "BJ [11]": {"tested_on": "BJ", "test": "BJ-TERT-LT-ST fibroblast viability loss – cell-based, RAS-independent, luminescence, dose response (AID 1935);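 note: BJ fibroblasts immortalized with TERT plus LT and ST oncogenes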", "format": "functional", "settings": "Homo sapiens"}, "BJ [12]": {"tested_on": "BJ", "test": "cells", "format": "functional, cell-based", "settings": "Homo sapiens"}, "[13]": {"test": "DRD fibroblast viability loss – cell-based, non-viral oncogenic, luminescence, dose response (AID 1934)", "format": "functional", "settings": "Homo sapiens"}, "HT-1080": {"tested_on": "HT-1080", "test": "HT1080 cell viability loss – fluorescence readout (AID 620)", "format": "functional, cell-based", "settings": "Homo sapiens"}, "[14]": {"target": "Luciferin 4-monooxygenase (Photinus pyralis, UniProt P08659)", "sequence (P08659 whole entry)": "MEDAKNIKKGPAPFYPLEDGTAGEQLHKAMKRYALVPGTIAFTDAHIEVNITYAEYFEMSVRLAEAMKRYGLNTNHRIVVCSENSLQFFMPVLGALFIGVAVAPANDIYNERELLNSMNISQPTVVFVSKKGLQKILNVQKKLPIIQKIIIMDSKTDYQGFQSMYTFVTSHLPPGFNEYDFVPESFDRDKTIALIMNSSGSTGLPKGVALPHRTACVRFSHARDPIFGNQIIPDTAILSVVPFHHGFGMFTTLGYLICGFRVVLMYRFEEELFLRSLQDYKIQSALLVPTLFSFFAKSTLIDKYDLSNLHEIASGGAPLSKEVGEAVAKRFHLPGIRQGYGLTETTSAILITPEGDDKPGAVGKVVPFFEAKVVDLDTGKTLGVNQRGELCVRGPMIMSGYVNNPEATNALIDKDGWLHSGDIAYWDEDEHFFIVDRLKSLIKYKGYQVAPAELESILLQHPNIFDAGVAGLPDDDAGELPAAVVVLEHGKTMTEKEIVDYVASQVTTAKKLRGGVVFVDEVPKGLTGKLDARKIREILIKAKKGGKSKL", "test": "Counter Screen for Luciferase-based Assay Positives. [Related pubchem assays: 620, 618, 411 ]"}, "[15]": {"target": "T5, Rac GTPase-activating protein 1 (Homo sapiens, UniProt Q9H0H5)", "T5 sequence (Q9H0H5 whole entry)": "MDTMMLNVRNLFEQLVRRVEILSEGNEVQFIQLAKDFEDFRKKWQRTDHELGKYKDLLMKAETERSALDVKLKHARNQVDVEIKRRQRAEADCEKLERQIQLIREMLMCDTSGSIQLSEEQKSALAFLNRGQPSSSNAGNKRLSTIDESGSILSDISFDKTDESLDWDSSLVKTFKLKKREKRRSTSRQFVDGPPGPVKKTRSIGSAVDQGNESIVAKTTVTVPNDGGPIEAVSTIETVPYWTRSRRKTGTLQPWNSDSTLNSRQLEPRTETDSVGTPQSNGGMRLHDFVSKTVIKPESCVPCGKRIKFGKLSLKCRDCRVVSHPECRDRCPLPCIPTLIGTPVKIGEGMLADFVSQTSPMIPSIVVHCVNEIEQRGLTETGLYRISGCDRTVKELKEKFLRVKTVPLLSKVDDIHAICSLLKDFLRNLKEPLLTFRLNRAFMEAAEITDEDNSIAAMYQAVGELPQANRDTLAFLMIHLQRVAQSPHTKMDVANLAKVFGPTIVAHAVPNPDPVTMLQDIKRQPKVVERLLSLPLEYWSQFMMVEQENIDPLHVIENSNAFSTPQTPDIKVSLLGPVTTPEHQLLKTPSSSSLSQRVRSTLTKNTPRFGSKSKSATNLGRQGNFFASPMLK", "test": "blockers of MgcRacGAP-driven Rac1 GTP hydrolysis – biochemical, ADP Hunter fluorescence, primary and confirmatory, confirmation (AID 624330)", "format": "functional"}, "[16]": {"target": "E3 ubiquitin-protein ligase Mdm2 (Homo sapiens, UniProt Q00987)", "test": "MDM2-luc reporter signal enhancers, multi-concentration potency testing, MDM2 ubiquitin-protein ligase inhibitor program, whole-cell format, luminescence detection, 384-well microplate (AID 1394);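 note: MDM2 E3 inhibitors raise luminescence so EC50 is for signal enhancement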", "format": "functional"}},
  "note": "Active and inactive are the calls of the source.",
  "data": [
    {"smiles": "Fc1ccccc1-c1ccc(/C=N/Nc2nc3ccccc3[nH]2)o1", "values": [
      {"measurement": "IC50", "setting": "[1]", "value": "> 67.5 µM (inactive)"},
      {"measurement": "EC50", "setting": "[2]", "value": "> 67.5 µM (inactive)"}
    ]},
    {"smiles": "CCOC(=O)c1s/c(=N\\C(=O)c2ccc(Cl)s2)n(C)c1C", "values": [
      {"measurement": "EC50", "setting": "[3]", "value": "> 67.5 µM (inactive)"},
      {"measurement": "EC50", "setting": "cells", "value": "> 67.5 µM (inactive)"}
    ]},
    {"smiles": "CC(=O)c1c(COC(=O)c2ccc(Cl)cc2)nc2ccccc2[n+]1[O-]", "values": [
      {"measurement": "EC50", "setting": "[4]", "value": "> 120 µM (not active)"}
    ]},
    {"smiles": "CCN1CCN(Cc2ccc(NC(=O)Nc3cccs3)cc2)CC1", "values": [
      {"measurement": "IC50", "setting": "Estrogen receptor beta", "value": "0.41 µM (not active)"},
      {"measurement": "AC50", "setting": "Cytochrome P450 2C9", "value": "7.94 µM (inconclusive)"},
      {"measurement": "AC50", "setting": "Cytochrome P450 1A2", "value": "12.6 µM (inconclusive)"}
    ]},
    {"smiles": "CCOC(=O)c1sc(NC(=O)COc2ccc3c(c2)OCO3)nc1C", "values": [
      {"measurement": "IC50", "setting": "[5]", "value": "7.18 µM (active)"},
      {"measurement": "IC50", "setting": "[6]", "value": "> 111 µM (not active)"}
    ]},
    {"smiles": "O=C(CSc1nc2cccnc2n1Cc1ccccc1)NCc1ccco1", "values": [
      {"measurement": "EC50", "setting": "[7]", "value": "> 79.4 µM (not active)"},
      {"measurement": "EC50", "setting": "[8]", "value": "> 79.4 µM (not active)"},
      {"measurement": "EC50", "setting": "[9]", "value": "> 79.4 µM (not active)"}
    ]},
    {"smiles": "CCOc1ccc(OCC)c(NC(=O)C(NS(=O)(=O)c2ccc3c(c2)oc(=O)n3C)C(C)C)c1", "note": "(stereo unspecified)", "values": [
      {"measurement": "IC50", "setting": "[5]", "value": "> 5.47 µM (active)"},
      {"measurement": "IC50", "setting": "[6]", "value": "> 111 µM (not active)"}
    ]},
    {"smiles": "COc1ccc(-c2nc3ccccc3[nH]2)cc1", "values": [
      {"measurement": "EC50", "setting": "BJ [10]", "value": "8.49 µM (active)"},
      {"measurement": "EC50", "setting": "BJ [11]", "value": "22.7 µM (active)"},
      {"measurement": "EC50", "setting": "BJ [12]", "value": "19.1 µM (active)"},
      {"measurement": "EC50", "setting": "[13]", "value": "9.35 µM (active)"},
      {"measurement": "EC50", "setting": "HT-1080", "value": "20.3 µM (active)"},
      {"measurement": "EC50", "setting": "[14]", "value": "11 µM (active)"}
    ]},
    {"smiles": "COC(=O)c1[nH]c2cc(OC)c(OC)cc2c1NC(=O)Oc1ccccc1", "values": [
      {"measurement": "EC50", "setting": "[7]", "value": "90.7 µM (not active)"},
      {"measurement": "EC50", "setting": "[8]", "value": "> 79.4 µM (not active)"},
      {"measurement": "IC50", "setting": "[15]", "value": "28.8 µM (active)"},
      {"measurement": "EC50", "setting": "[9]", "value": "97.7 µM (not active)"}
    ]},
    {"smiles": "CN(C)c1cc(C(F)(F)F)nc(-c2ccccn2)n1", "values": [
      {"measurement": "EC50", "setting": "[16]", "value": "4.16 µM (not active)"}
    ]}
  ]
}
